According to article PMC8954547, “Nonpeptidic Z360-Analogs Tagged with Trivalent Radiometals as Anti-CCK2R Cancer Theranostic Agents: A Preclinical Study” (Pharmaceutics, 2022):

Experiments:
[1] = tested on: SCID mice bearing twin HEK293-CCK2i4svR and wtHEK293 tumors; experiment: Biodistribution in SCID mice bearing twin HEK293-CCK2i4svR and wtHEK293 xenografts; assay type: in vivo
Description: Inocula containing a suspension of freshly harvested HEK293-CCK2i4svR/wtHEK293 cells (150 μL, 1.8 × 10^7/1.4 × 10^7 cells, respectively, in normal saline) were subcutaneously (sc) injected in the right and left flanks of male SCID mice (24.5 ± 2.3 g body weight, six weeks of age on arrival day, NCSR “Demokritos” Animal House Facility). Well-palpable tumors (0.42 ± 0.37/0.25 ± […], respectively) were grown at the inoculation site 3–4 weeks later, and biodistribution was conducted. On the day of biodistribution, animals were divided into groups of four and received the radioligand through the tail vein as a bolus (100 μL, containing each of: i. 78–91 kBq [^67Ga]GAS1/2/3 corresponding to 7–17 pmol GAS1/2/3; ii. 74–92 kBq [^111In]GAS1/2/3 corresponding to 20–25 pmol GAS1/2/3; iii. 730 kBq [^177Lu]Lu-GAS1/3 corresponding to 40 pmol GAS1/3, in-vehicle: saline/EtOH 9/1 v/v). Animals were euthanized at predetermined time intervals depending upon the radionuclide applied (for [^67Ga]Ga-GAS1/2/3: 1, 4 and 24 h pi; for [^111In]In-GAS1/2/3: 4 and 24 h pi–two extra groups of mice receiving gelofusine together with [^111In]In-GAS1/2 at 4 and 24 h pi were included; and for [^177Lu]Lu-GAS1/3: 4, 24, 48, 72 and 96 h pi). Mice were dissected, and blood samples, organs of interest and tumors were rapidly collected, weighted and counted in the gamma counter. Biodistribution data was calculated as the percentage of the administered dose per gram tissue (%IA/g) with the aid of suitable standards of the administered dose and the Microsoft Excel program. Results are presented as mean % IA/g values ± SD, n = 4 per time point, as determined by the PRISM^TM 6.0 GraphPad software (San Diego, CA, USA).

[2] = Radioligand stability in mice (radio-HPLC of blood and urine); assay type: in vivo; conditions: mean ± SD
Description: The formation of radiometabolites which can be detected in the blood was tested in blood samples collected 5 min post-injection (pi) of each of the radioligands [^67Ga]Ga/[^111In]In/[^177Lu]Lu-GAS1/3 and [^67Ga]Ga/[^111In]In-GAS2. For this study, in-house male Swiss albino mice (body weight: 30 ± 5 g, provided by the NCSR “Demokritos” Animal House) were used in groups of three. The animals received, through the tail vein, a 100-μL bolus containing each radioligand tested (2.5–3 nmol of the total conjugate in vehicle: saline/EtOH 9/1 v/v, corresponding to: up to 11 MBq for In-111, up to 13 MBq for Ga-67 and up to 74 MBq for Lu-177). Mice were euthanized, and blood was collected directly from the heart using a prechilled penicillin syringe and transferred in a prechilled EDTA-containing Eppendorf Protein LoBind® tube on ice (40 µL, 50 mM Na2EDTA solution). After centrifugation (10 min, 2000× g/4 °C, in a Hettich, Universal 320R, centrifuge), the blood plasma was collected, mixed with chilled MeCN in a 1/1 v/v ratio and centrifuged again (10 min, 15,000× g/4 °C). Supernatants were collected and concentrated to a small volume (≈50–100 μL) under a gentle N2-flux at 40 °C. They were then diluted with physiological saline (≈400 μL) and filtered through a Millex GV filter (0.22 μm, 13 mm Ø, Millipore, Milford, CT, USA). Aliquots of the filtrate were analyzed by radio-RP-HPLC using a Waters Symmetry Shield RP18 cartridge column (5 μm, 3.9 mm × 20 mm) eluted at a flow rate of 1.0 mL/min with the following gradient: 100% A/0% B to 55% A/45% B in 45 min; A = 0.1% aqueous TFA (v/v) and B = MeCN (system 2). The elution time (tR) of each parent radioligand was determined by coinjection of blood samples with an aliquot of the labeling solution on the HPLC column. Results were calculated as the average percentage of intact radioligand ± SD derived from three independent experiments.
Following the same injection protocol, radioligands were administered in additional groups of mice, but this time animals were euthanized 30 min pi. The urine was immediately collected from the bladder using a prechilled syringe and transferred as before in a prechilled EDTA-containing Eppendorf Protein LoBind® centrifuge tube on ice (40 µL, 50 mM Na2EDTA solution) and 0.1 mL of physiological saline. Urine proteins were precipitated by adding chilled MeCN in a 1/1 v/v ratio followed by a 10 min centrifugation step (15,000× g/4 °C). The supernatant was then collected and treated following the blood sample workup procedure. Aliquots of the Millex-GV filtrate (containing >90% of total urine activity) were analyzed by radio-HPLC, adopting the aforementioned conditions. Results were calculated as the average percentage of intact radioligand ± SD derived from three independent experiments.

[3] = tested on: HEK293-CCK2i4svR cells; experiment: Radioligand uptake and internalization in HEK293-CCK2i4svR cells; assay type: cell-based, human
Description: A day before the experiment, HEK293-CCK2i4svR cells were seeded in six-well plates. The next day, cells were rinsed with ice-cold internalization medium (IM: DMEM Glutamax-I, supplemented by 1% (v/v) FBS) and then the fresh medium was added (1.2 mL) at 37 °C. A further portion of IM (150 µL) was added in the upper well-row, and DG2 solution in IM (150 µL) was added in the lower row (to a final concentration of 1 μM; non-specific series). Each of the test radioligands, [^67Ga]Ga/[^111In]In/[^177Lu]Lu-GAS1/3 and [^67Ga]Ga/[^111In]In-GAS2, was finally added (250 fmol total conjugates in 150 μL 0.5% BSA-PBS) in all the wells and the plates were incubated at for 1 h at 37 °C in an Incubator-Orbital Shaker unit (MPM Instr. SrI, Bernareggio, MI, Italy); [^111In]In-GAS1/2/3 were incubated for 15 min, 30 min, 1 h and 2 h. At the predetermined time points, the plates were placed on ice, the medium was collected, and the plates were rinsed with 0.5% BSA-PBS (1 mL). Cells were subsequently treated with an acid-wash solution (2 × 600 µL; 50 mM glycine buffer pH 2.8, 0.1 M NaCl) and the fractions collected (membrane-bound). After briefly washing with 0.5% BSA-PBS (1 mL), the cells were lysed with 1 N NaOH (2 × 600 µL), and the fractions were collected (internalized). The radioactivity content of collected fractions was counted in the gamma counter, and the percentage of internalized and membrane-bound fractions per time point were calculated with Microsoft Excel. Specific internalized and membrane-bound counts were determined by subtracting the respective non-specific (in the presence of 1 μM DG2) from the respective total counts. Results represent specific internalized/membrane bound ± SD of total added radioactivity per well from three experiments performed in triplicate.

Biodistribution, Blood ([1]; 1 h pi): 6.53 ± 1.33 %IA/g | Biodistribution, CCK2i4svR(+) Tumor ([1]; 1 h pi): 12.62 ± 1.76 %IA/g | Biodistribution, CCK2i4svR(-) Tumor ([1]; 1 h pi): 1.62 ± 0.12 %IA/g | Biodistribution, Femur ([1]; 1 h pi): 0.97 ± 0.12 %IA/g | Biodistribution, Heart ([1]; 1 h pi): 2.11 ± 0.86 %IA/g | Biodistribution, Intestines ([1]; 1 h pi): 2.33 ± 0.44 %IA/g | Biodistribution, Kidneys ([1]; 1 h pi): 5.78 ± 0.48 %IA/g | Biodistribution, Liver ([1]; 1 h pi): 3.39 ± 0.35 %IA/g | Biodistribution, Lungs ([1]; 1 h pi): 3.63 ± 0.69 %IA/g | Biodistribution, Muscle ([1]; 1 h pi): 0.61 ± 0.07 %IA/g | Biodistribution, Pancreas ([1]; 1 h pi): 2.26 ± 0.18 %IA/g | Biodistribution, Spleen ([1]; 1 h pi): 1.63 ± 0.16 %IA/g | Biodistribution, Stomach ([1]; 1 h pi): 1.09 ± 0.22 %IA/g | Biodistribution, Blood ([1]; 4 h pi): 1.25 ± 0.27 %IA/g | Biodistribution, CCK2i4svR(-) Tumor ([1]; 4 h pi): 0.75 ± 0.19 %IA/g | Biodistribution, Femur ([1]; 4 h pi): 0.29 ± 0.16 %IA/g | Biodistribution, Heart ([1]; 4 h pi): 0.47 ± 0.09 %IA/g | Biodistribution, Intestines ([1]; 4 h pi): 2.84 ± 0.38 %IA/g | Biodistribution, Kidneys ([1]; 4 h pi): 3.59 ± 0.60 %IA/g | Biodistribution, Liver ([1]; 4 h pi): 2.49 ± 0.31 %IA/g | Biodistribution, Lungs ([1]; 4 h pi): 1.19±0.21 %IA/g | Biodistribution, Muscle ([1]; 4 h pi): 0.19±0.07 %IA/g | Biodistribution, Pancreas ([1]; 4 h pi): 0.51 ± 0.09 %IA/g | Biodistribution, Spleen ([1]; 4 h pi): 0.78±0.02 %IA/g | Biodistribution, Stomach ([1]; 4 h pi): 0.37 ± 0.08 %IA/g | Biodistribution, Blood ([1]; 24 h pi): 0.08 ± 0.01 %IA/g | Biodistribution, CCK2i4svR(+) Tumor ([1]; 24 h pi): 2.47 ± 0.41 %IA/g | Biodistribution, CCK2i4svR(-) Tumor ([1]; 24 h pi): 0.00 ± 0.00 %IA/g | Biodistribution, Femur ([1]; 24 h pi): 0.18 ± 0.04 %IA/g | Biodistribution, Heart ([1]; 24 h pi): 0.13 ± 0.01 %IA/g | Biodistribution, Intestines ([1]; 24 h pi): 0.32 ± 0.13 %IA/g | Biodistribution, Kidneys ([1]; 24 h pi): 0.88 ± 0.17 %IA/g | Biodistribution, Liver ([1]; 24 h pi): 0.75 ± 0.08 %IA/g | Biodistribution, Lungs ([1]; 24 h pi): 0.31 ± 0.16 %IA/g | Biodistribution, Muscle ([1]; 24 h pi): 0.05 ± 0.02 %IA/g | Biodistribution, Pancreas ([1]; 24 h pi): 0.22 ± 0.01 %IA/g | Biodistribution, Spleen ([1]; 24 h pi): 0.51 ± 0.12 %IA/g | Biodistribution, Stomach ([1]; 24 h pi): 0.18 ± 0.02 %IA/g | Intact radioligand in blood ([2]; mice blood collected 5 min pi): 93.9 ± 0.6 (3) % | Intact radioligand in urine ([2]; mice urine collected 30 min pi): 80.2 ± 1.0 (3) %
SMILES: CC(C)(C)C(=O)CN1C(=O)[C@H](NC(=O)Nc2cccc(C(=O)NCCOCCOCCOCCNC(=O)[C@H](CCC(=O)O)NC(=O)CN3CCN(CC(=O)[O-])CCN(CC(=O)[O-])CCN(CC(=O)[O-])CC3)c2)CN(C2CCCCC2)c2ccccc21.[67Ga+3] (stereo in doubt) [[^67Ga]Ga-GAS1]
Internalized to membrane-bound ratio [3]: 0.7 | Internalized fraction ([3]; 1 h 37 °C, specific): 1.79 ± 0.45 % of total added activity | Cell uptake (internalized + membrane-bound) ([3]; 1 h 37 °C, specific, of total added activity): 4.26 ± 0.99%
